# Experimental data from patent publication EP0714404B1, “ANTI-INFLAMMATORY PEPTIDES” (CURATIVE TECHNOLOGIES, INC., priority 1993, dated 1995).
# Read-outs that look alike come from different tables or passages of the source. Residues, ends and D or L forms follow the SMILES beside them.
# What was measured:
# Format in all cases: in vivo, mice
# [1] = system: Delayed Type Hypersensitivity; assay: mouse model of delayed-type hypersensitivity induced by DNCB; conditions: Prednisone ip 25 mg/kg, 2 hr prior to challenge
# Description: CT-112 (SEQ. ID NO: 1) was tested for its ability to modulate the immune response in a mouse model of delayed hypersensitivity (Filipp et al., 1984, Allergy, 39: 499-507; Diezel et al., 1989 J. Invest. Dermatol. 93:322-326). The mice used in this study were 8-wk old hairless females (Jackson Laboratories). The mice were sensitized to a contact allergen (1-chloro-2,4-dinitrobenzene, DNCB) by painting the dorsothoracic region twice daily for 5 consecutive days with 50 µl of 0.5% DNCB in 75% acetone:25% vegetable oil. The animals were allowed to rest for 24 hr prior to challenge with DNCB. On the sixth day after initiation of the sensitization treatments, the animals were challenged with 50 µl of DNCB solution applied to the left ear. After 24 hrs, the ear thickness was determined and compared to the unchallenged ear.
# The treatment groups were as follows: • a) PBS control; • b) Prednisone (intraperitoneal injection of 25 mg/kg, 2 hr prior to challenge); • c) 7-day pump (60 mg CT-112/kg/24 hr); • d) CT-112 (intraperitoneal injections of 60 mg/kg/injection at 3, 1, and 0.25 hr prior to challenge and 3, 6 and 21 hr post-challenge); • e) DMSO control (topical application of 50 µl at 3, 1 and 0.25 hr prior to challenge; and • f) CT-112 in DMSO (20 mg/ml, topical application of 50 µl at 3, 1, and 0.25 hr prior to challenge and 3, 6 and 21 hr post-challenge).
# [2] = system: Arachidonic Acid Induced Inflammation; conditions: mouse, in vivo
# Description: (§1) The anti-inflammatory properties of CT-112 (SEQ. ID NO: 1) were assessed using a standardized assay for anti-inflammatory activity, i.e., the mouse ear model in which arachidonic acid (AA) is used to induce an inflammatory reaction (Young et al., 1984, J. Invest. Dermatol. 82:367-371; Doherty, et al., 1988, J. Invest. Dermatol. 91:298-302).
# (§2) Female mice (C57BL/6UAF, Charles River Breeding Laboratories, approximately 15-18 g) were obtained and acclimated for 2 weeks prior to use. The animals were approximately 14 weeks old at the start of the study.
# (§3) To prepare minipumps for implantation, CT-112 (SEQ. ID NO: 1) was dissolved in PBS. The material was loaded into Alzet minipumps set to deliver 0.05 (5 animals), 0.1 (10 animals), 1 (10 animals), or 2.5 (5 animals) mg of CT-112 (SEQ. ID NO: 1) per animal per day. Minipumps for implantation into control animals contained only PBS. As a positive control, one set of 10 mice received 100 mg/kg of phenidone, a potent 5-lipoxygenase inhibitor which acts as an anti-inflammatory agent, 15 min prior to challenge with AA.
# (§4) For subcutaneous implantation of minipumps, animals were anesthetized with Ketamine/Xylazine. The Ketamine (Aveco Lot #440140) was injected at 80 mg/kg and the Xylazine (Rugby Laboratories Lot #26040-B) at 16 mg/kg and the Alzet pumps were implanted subcutaneously in the dorsothoracic area. Animals were allowed to recover and then housed and given food and water ad libitum for 5 days.
# (§5) On the sixth day following pump implantation, 0.01 ml of AA was applied to the inner and outer surfaces of the right ear by means of an automatic microliter pipette. One hr following AA application, the mice were sacrificed and ear thickness was measured with a Mitutoyo No. 7300 Gauge Caliper. The left ears were also measured as an internal control.
# (§6) Mice were implanted with Alzet mini-pumps set to deliver 60 mg/kg/day for either 7, 3, or 1 days. A separate group of 5 mice received 3 intraperitoneal injections of CT-112 (60 mg/kg/injection) at 24, 1 and 0.25 hr prior to AA challenge. CT-112 (SEQ. ID NO: 1) was prepared for injection by dissolving the compound in Dulbecco's PBS to give a final CT-112 (SEQ. ID NO: 1) concentration of 5 mg/ml. The control mice were implanted with Alzet minipumps that delivered PBS for 7 days. The AA challenge was the same as described supra in Example 7.
# (§7) Administration of CT-112 (SEQ. ID NO: 1) (60 mg/kg/injection) via multiple intraperitoneal injections was performed at the following times prior to AA challenge: • a) 6, 3, 1 and 0.25 hr; • b) 3, 1 and 0.25 hr; or • c) 1 and 0.25 hr.
# (§8) In addition, the effect of a single administration of CT-112 (SEQ. ID NO: 1) (60 mg/kg) by intraperitoneal injection was performed at either 1 or 3 hr prior to AA challenge. Control mice had Alzet minipumps implanted to deliver PBS for 7 days prior to AA challenge. The AA challenge was the same as described supra in Example 7. The results of the multiple dosing regimens and the 1 hr and 3 hr single dosing regimens were compared to the anti-inflammatory activity of CT-112 (SEQ. ID NO: 1) delivered via Alzet minipump set to deliver 60 mg/kg/day for 7 days using 5 animals per treatment.
# In a separate experiment, the effect of multiple intraperitoneal injections of CT-112 (SEQ. ID NO: 1) at either 6, 3, 1 and 0.25 hr, or 16, 3, 1 and 0.25 hr prior to AA challenge was assessed. The results of both multi-dosing regimens were compared to both phenidone (100 mg/kg administered 15 min prior to AA challenge) and CT-112 (SEQ. ID NO: 1) administered via Alzet mini-pump (60 mg/kg/day for 7 days). For this latter study, the number of animals receiving the single injection of CT-112 (SEQ. ID NO: 1) was increased from 5 to 10.
# Administration to mice of CT-112 (SEQ. ID NO: 1) (60 mg/kg/injection) via multiple subcutaneous injections prior to AA challenge was performed at: • a) 6, 3, 1 and 0.25 hr; • b) 3, 1 and 0.25 hr; or • c) 1 and 0.25 hr. […]
# [3] = system: Arachidonic Acid Induced Myeloperoxidase Activity in Mouse Ear; assay: myeloperoxidase activity in AA-treated mouse ear tissue (marker for PMNs); design: dose or concentration left out as unconfirmed; conditions: Phenidone 100
# Description: Myeloperoxidase activity in ear tissue was measured as a marker for the presence or absence of polymorphonuclear leukocytes (PMNs) (Barone et al., 1991, J. Neurosci. Res. 29:336-345). After measurement of ear thickness, ears were dissected from the mice and homogenized in 50mM Tris-HCL, pH 7.4 at 4°C to give a 10% (w/v) homogenate. Aliquots of the homogenate were used to determine the amount of myeloperoxidase activity present in the tissue using o-dianisidine (Sigma Chem Co., St. Louis MO) and hydrogen peroxide as substrates and monitoring chromophore generation at 460 nm (Barone et al., 1991, J. Neurosci. Res. 29:336-345).
# [4] = system: Arachidonic Acid Induced Inflammation; assay: mouse ear model, arachidonic acid (AA) induced inflammation, ear thickness
# Description: as §1, §2, §3, §4, §5, §6, §7, §8
# In a separate experiment, the effect of multiple intraperitoneal injections of CT-112 (SEQ. ID NO: 1) at either 6, 3, 1 and 0.25 hr, or 16, 3, 1 and 0.25 hr prior to AA challenge was assessed. […]
# [5] = Table V, Phenidone 100 mg/kg 15 min prior to AA
compound,measurement,setting,value
C[C@]12C=CC(=O)C=C1CC[C@@H]1[C@@H]2C(=O)C[C@@]2(C)[C@H]1CC[C@]2(O)C(=O)CO [Prednisone],% Inhibition of Inflammation,[1],96.7%
same,Thickness Difference (Left-Right),[1]; 24 hrs after DNCB,0.00014 ± 0.000446 in
"CC(C)[C@H](NC(=O)[C@H](CCC(N)=O)NC(=O)[C@H](CO)NC(=O)[C@@H](NC(=O)[C@@H](N)[C@@H](C)O)[C@@H](C)O)C(=O)O [CT-114, Thr-Thr-Ser-Gln-Val] (H-TTSQV-OH)",% Inhibition of Inflammation,[2]; 6 mg/kg/day,59.3%
same,% Inhibition of Inflammation,[2]; 60 mg/kg/day,62.4%
O=C1CCN(c2ccccc2)N1 [Phenidone],Myeloperoxidase Activity,[3],14.5 ± 8.6 µmole of chromophore formed/min
same,Ear Thickness,"[4]; Phenidone 100mg/kg, 15 min prior to AA, 1 hr after AA",0.01176 ± 0.0008 (10) in
same,% Inhibition of Inflammation,"[4]; Table III, Phenidone 100 mg/kg",88%
same,Thickness Difference (Left-Right),"[4]; Table III, Phenidone 100 mg/kg",0.00073 ± 0.00153 in
same,% Inhibition of Inflammation,[4]; [5],84.2%
same,Thickness Difference (Left-Right),[4]; [5],0.00102 ± 0.00038(5) in
